Reference: article PMC6979384, “Characterization of the plant homeodomain (PHD) reader family for their histone tail interactions” (Epigenetics & Chromatin, 2020)

Assays:
Experiment in all cases: Histone peptide microarray
Type in all cases: binding, human
PHF13 = settings: GST-tagged PHF13; for Array Heatmap signal (histone peptide microarray): sheet Array Heatmap, each array performed twice, total n = 4
Method in brief: (§1)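 Each reader, produced as a GST fusion and purified, was tested at 0.5 μM on synthetic histone peptides (293 in total) carrying single or combinatorial marks. Intensities averaged over four replicates.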

CHD5 (PPCC) = settings: GST-tagged CHD5 (PPCC = Dual PHD + Dual Chromodomain); for Array Heatmap signal (histone peptide microarray): sheet Array Heatmap, each array performed twice, total n = 4
Method in brief: as §1

KDM5A (3) = settings: GST-tagged KDM5A (3); for Array Heatmap signal (histone peptide microarray): sheet Array Heatmap, each array performed twice, total n = 4
Method in brief: as §1

BPTF (PB) = settings: GST-tagged BPTF (PB = PHD + Bromodomain); for Array Heatmap signal (histone peptide microarray): sheet Array Heatmap, each array performed twice, total n = 4
Method in brief: as §1

TRIM66 (PB) = settings: GST-tagged TRIM66 (PB = PHD + Bromodomain); for Array Heatmap signal (histone peptide microarray): sheet Array Heatmap, each array performed twice, total n = 4
Method in brief: as §1

PHF2 = settings: GST-tagged PHF2; for Array Heatmap signal (histone peptide microarray): sheet Array Heatmap, each array performed twice, total n = 4
Method in brief: as §1

KDM5B (1) = settings: GST-tagged KDM5B (1); for Array Heatmap signal (histone peptide microarray): sheet Array Heatmap, each array performed twice, total n = 4
Method in brief: as §1

CHD4 (PPCC) = settings: GST-tagged CHD4 (PPCC = Dual PHD + Dual Chromodomain); for Array Heatmap signal (histone peptide microarray): sheet Array Heatmap, each array performed twice, total n = 4
Method in brief: as §1

SP140L = settings: GST-tagged SP140L; for Array Heatmap signal (histone peptide microarray): sheet Array Heatmap, each array performed twice, total n = 4
Method in brief: as §1

ING5 = settings: GST-tagged ING5; for Array Heatmap signal (histone peptide microarray): sheet Array Heatmap, each array performed twice, total n = 4
Method in brief: as §1

TAF3 = settings: GST-tagged TAF3; for Array Heatmap signal (histone peptide microarray): sheet Array Heatmap, each array performed twice, total n = 4
Method in brief: as §1

RAG2 = settings: GST-tagged RAG2; for Array Heatmap signal (histone peptide microarray): sheet Array Heatmap, each array performed twice, total n = 4
Method in brief: as §1

MLL5 = settings: GST-tagged MLL5; for Array Heatmap signal (histone peptide microarray): sheet Array Heatmap, each array performed twice, total n = 4
Method in brief: as §1

KDM5B (3) = settings: GST-tagged KDM5B (3); for Array Heatmap signal (histone peptide microarray): sheet Array Heatmap, each array performed twice, total n = 4
Method in brief: as §1

KDM4C (TTP) = settings: GST-tagged KDM4C (TTP = Tandem Tudor domain + PHD); for Array Heatmap signal (histone peptide microarray): sheet Array Heatmap, each array performed twice, total n = 4
Method in brief: as §1

PHRF1 (RP) = settings: GST-tagged PHRF1 (RP); for Array Heatmap signal (histone peptide microarray): sheet Array Heatmap, each array performed twice, total n = 4
Method in brief: as §1

KDM5A (1) = settings: GST-tagged KDM5A (1); for Array Heatmap signal (histone peptide microarray): sheet Array Heatmap, each array performed twice, total n = 4
Method in brief: as §1

KDM7A = settings: GST-tagged KDM7A; for Array Heatmap signal (histone peptide microarray): sheet Array Heatmap, each array performed twice, total n = 4
Method in brief: as §1

PHF23 = settings: GST-tagged PHF23; for Array Heatmap signal (histone peptide microarray): sheet Array Heatmap, each array performed twice, total n = 4
Method in brief: as §1

DPF2 (PPC2W2) = settings: GST-tagged DPF2 (PPC2W2 = Dual PHD + C2W2-type Zn-finger); for Array Heatmap signal (histone peptide microarray): sheet Array Heatmap, each array performed twice, total n = 4
Method in brief: as §1

CHD5 (PCC) = settings: GST-tagged CHD5 (PCC = PHD + Dual Chromodomain); for Array Heatmap signal (histone peptide microarray): sheet Array Heatmap, each array performed twice, total n = 4
Method in brief: as §1

ING2 = settings: GST-tagged ING2; for Array Heatmap signal (histone peptide microarray): sheet Array Heatmap, each array performed twice, total n = 4
Method in brief: as §1

BAZ2B = settings: GST-tagged BAZ2B; for Array Heatmap signal (histone peptide microarray): sheet Array Heatmap, each array performed twice, total n = 4
Method in brief: as §1

AIRE (PP) = settings: GST-tagged AIRE (PP); for Array Heatmap signal (histone peptide microarray): sheet Array Heatmap, each array performed twice, total n = 4
Method in brief: as §1

ING4 = settings: GST-tagged ING4; for Array Heatmap signal (histone peptide microarray): sheet Array Heatmap, each array performed twice, total n = 4
Method in brief: as §1

ING3 = settings: GST-tagged ING3; for Array Heatmap signal (histone peptide microarray): sheet Array Heatmap, each array performed twice, total n = 4
Method in brief: as §1

PHF8 = settings: GST-tagged PHF8; for Array Heatmap signal (histone peptide microarray): sheet Array Heatmap, each array performed twice, total n = 4
Method in brief: as §1

MORC3 (CW) = settings: GST-tagged MORC3 (CW = CW-type Zn-finger); for Array Heatmap signal (histone peptide microarray): sheet Array Heatmap, each array performed twice, total n = 4
Method in brief: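 GST-tagged PHD finger readers were expressed, purified and applied at 0.5 μM to a microarray of 293 synthetic histone peptides carrying single or combinatorial PTMs, using an optimized protocol. Binding signals are averages with standard deviation from 4 replicates.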

PHF21A = settings: GST-tagged PHF21A; for Array Heatmap signal (histone peptide microarray): sheet Array Heatmap, each array performed twice, total n = 4
Method in brief: as §1

DIDO1 = settings: GST-tagged DIDO1; for Array Heatmap signal (histone peptide microarray): sheet Array Heatmap, each array performed twice, total n = 4
Method in brief: as §1

ING1 = settings: GST-tagged ING1; for Array Heatmap signal (histone peptide microarray): sheet Array Heatmap, each array performed twice, total n = 4
Method in brief: as §1

[1] = histone peptide array, arrays performed twice, n of 4

H3K4ac: H3 1-20 [Peptide H3K4ac]
Array Heatmap signal (histone peptide microarray) (PHF13): 0.5951 | Array Heatmap signal (histone peptide microarray) (CHD5 (PPCC)): 0.5057 | Array Heatmap signal (histone peptide microarray) (KDM5A (3)): 0.4174 | Array Heatmap signal (histone peptide microarray) (BPTF (PB)): 0.3314 | Array Heatmap signal (histone peptide microarray) (TRIM66 (PB)): 0.5857 | Array Heatmap signal (histone peptide microarray) (PHF2): 0.603 | Array Heatmap signal (histone peptide microarray) (KDM5B (1)): 0.5705 | Array Heatmap signal (histone peptide microarray) (CHD4 (PPCC)): 0.511 | Array Heatmap signal (histone peptide microarray) (SP140L): 0.3065 | Array Heatmap signal (histone peptide microarray) (ING5): 0.3289 | Array Heatmap signal (histone peptide microarray) (TAF3): 0.248 | Array Heatmap signal (histone peptide microarray) (RAG2): 0.2316 | Array Heatmap signal (histone peptide microarray) (MLL5): 0.5593 | Array Heatmap signal (histone peptide microarray) (KDM5B (3)): 0.4727 | Array Heatmap signal (histone peptide microarray) (KDM4C (TTP)): 0.4265 | Array Heatmap signal (histone peptide microarray) (PHRF1 (RP)): 0.4419 | Array Heatmap signal (histone peptide microarray) (KDM5A (1)): 0.429 | Array Heatmap signal (histone peptide microarray) (KDM7A): 0.3036 | Array Heatmap signal (histone peptide microarray) (PHF23): 0.5477 | Array Heatmap signal (histone peptide microarray) (DPF2 (PPC2W2)): 0.663 | Array Heatmap signal (histone peptide microarray) (CHD5 (PCC)): 0.7194 | Array Heatmap signal (histone peptide microarray) (ING2): 0.6074 | Array Heatmap signal (histone peptide microarray) (BAZ2B): 0.4282 | Array Heatmap signal (histone peptide microarray) (AIRE (PP)): 0.3833 | Array Heatmap signal (histone peptide microarray) (ING4): 0.4245 | Array Heatmap signal (histone peptide microarray) (ING3): 0.4516 | Array Heatmap signal (histone peptide microarray) (PHF8): 0.3449 | Array Heatmap signal (histone peptide microarray) (MORC3 (CW)): 0.3459 | Array Heatmap signal (histone peptide microarray) (PHF21A): 0.424 | Array Heatmap signal (histone peptide microarray) (DIDO1): 0.6919 | Array Heatmap signal (histone peptide microarray) (ING1): 0.5138

H3K4ac + K9ac + S10p + K14ac + K18ac: H3 1-20
Array Heatmap signal (histone peptide microarray) (PHF13): 0.6482 | Array Heatmap signal (histone peptide microarray) (CHD5 (PPCC)): 0.5941 | Array Heatmap signal (histone peptide microarray) (KDM5A (3)): 0.4188 | Array Heatmap signal (histone peptide microarray) (BPTF (PB)): 0.3689 | Array Heatmap signal (histone peptide microarray) (TRIM66 (PB)): 0.6786 | Array Heatmap signal (histone peptide microarray) (PHF2): 0.4731 | Array Heatmap signal (histone peptide microarray) (KDM5B (1)): 0.6478 | Array Heatmap signal (histone peptide microarray) (CHD4 (PPCC)): 0.5822 | Array Heatmap signal (histone peptide microarray) (SP140L): 0.3597 | Array Heatmap signal (histone peptide microarray) (ING5): 0.3888 | Array Heatmap signal (histone peptide microarray) (TAF3): 0.2701 | Array Heatmap signal (histone peptide microarray) (RAG2): 0.2541 | Array Heatmap signal (histone peptide microarray) (MLL5): 0.555 | Array Heatmap signal (histone peptide microarray) (KDM5B (3)): 0.4819 | Array Heatmap signal (histone peptide microarray) (KDM4C (TTP)): 0.5421 | Array Heatmap signal (histone peptide microarray) (PHRF1 (RP)): 0.429 | Array Heatmap signal (histone peptide microarray) (KDM5A (1)): 0.5046 | Array Heatmap signal (histone peptide microarray) (KDM7A): 0.4698 | Array Heatmap signal (histone peptide microarray) (PHF23): 0.5331 | Array Heatmap signal (histone peptide microarray) (DPF2 (PPC2W2)): 0.6938 | Array Heatmap signal (histone peptide microarray) (CHD5 (PCC)): 0.8446 | Array Heatmap signal (histone peptide microarray) (ING2): 0.5779 | Array Heatmap signal (histone peptide microarray) (BAZ2B): 0.5889 | Array Heatmap signal (histone peptide microarray) (AIRE (PP)): 0.5295 | Array Heatmap signal (histone peptide microarray) (ING4): 0.4935 | Array Heatmap signal (histone peptide microarray) (ING3): 0.4823 | Array Heatmap signal (histone peptide microarray) (PHF8): 0.3899 | Array Heatmap signal (histone peptide microarray) (MORC3 (CW)): 0.3767 | Array Heatmap signal (histone peptide microarray) (PHF21A): 0.4919 | Array Heatmap signal (histone peptide microarray) (DIDO1): 0.6753 | Array Heatmap signal (histone peptide microarray) (ING1): 0.5313

H4 (1-23): H4 1-23
Array Heatmap signal, PHF13 (PHF13; [1]): 0.625 | Array Heatmap signal, CHD5 (PPCC) (CHD5 (PPCC); [1]): 0.5714 | Array Heatmap signal, KDM5A (3) (KDM5A (3); [1]): 0.4566 | Array Heatmap signal, BPTF (PB) (BPTF (PB); [1]): 0.3416 | Array Heatmap signal, TRIM66 (PB) (TRIM66 (PB); [1]): 0.7288 | Array Heatmap signal, PHF2 (PHF2; [1]): 0.4784 | Array Heatmap signal, KDM5B (1) (KDM5B (1); [1]): 0.7073 | Array Heatmap signal, CHD4 (PPCC) (CHD4 (PPCC); [1]): 0.5522 | Array Heatmap signal, SP140L (SP140L; [1]): 0.3814 | Array Heatmap signal, ING5 (ING5; [1]): 0.3618 | Array Heatmap signal, TAF3 (TAF3; [1]): 0.3843 | Array Heatmap signal, RAG2 (RAG2; [1]): 0.2838 | Array Heatmap signal, MLL5 (MLL5; [1]): 0.5337 | Array Heatmap signal, KDM5B (3) (KDM5B (3); [1]): 0.4835 | Array Heatmap signal, KDM4C (TTP) (KDM4C (TTP); [1]): 0.5139 | Array Heatmap signal, PHRF1 (RP) (PHRF1 (RP); [1]): 0.532 | Array Heatmap signal, KDM5A (1) (KDM5A (1); [1]): 0.4868 | Array Heatmap signal, KDM7A (KDM7A; [1]): 0.4019 | Array Heatmap signal, PHF23 (PHF23; [1]): 0.53 | Array Heatmap signal, DPF2 (PPC2W2) (DPF2 (PPC2W2); [1]): 0.7352 | Array Heatmap signal, CHD5 (PCC) (CHD5 (PCC); [1]): 0.772 | Array Heatmap signal, ING2 (ING2; [1]): 0.5875 | Array Heatmap signal, BAZ2B (BAZ2B; [1]): 0.467 | Array Heatmap signal, AIRE (PP) (AIRE (PP); [1]): 0.4854 | Array Heatmap signal, ING4 (ING4; [1]): 0.4424 | Array Heatmap signal, ING3 (ING3; [1]): 0.4725 | Array Heatmap signal, PHF8 (PHF8; [1]): 0.3699 | Array Heatmap signal, MORC3 (CW) (MORC3 (CW); [1]): 0.3892 | Array Heatmap signal, PHF21A (PHF21A; [1]): 0.4603 | Array Heatmap signal, DIDO1 (DIDO1; [1]): 0.6189 | Array Heatmap signal, ING1 (ING1; [1]): 0.4959
